Patent US20260007133A1, “HERBICIDAL COMPOSITION COMPRISING AZINE COMPOUNDS” (BASF SE, priority 2022, published 2026)
Read-outs that look alike come from different tables or passages of the source.

How the values were obtained:
Type in all cases: in vivo
Geranium pusillum = test: Greenhouse post-emergence (POST) herbicidal test on GERPU; details: Geranium pusillum, post-emergence; for inhibition at 2 g/ha: use rate 2 gai/ha, read-out: % activity
Summary of the method: (§1)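 Greenhouse weeds, raised in pots of humus-containing loamy sand, receive a water-based spray of the actives once 3 to 15 cm tall. Damage is rated visually from 0 (none) to 100 (above-ground parts destroyed) 20 days after treatment.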

AMAPA [1] = test: Greenhouse pre-emergence (PRE) herbicidal test on AMAPA; details: pre-emergence; for inhibition at 8 g/ha: use rate 8 gai/ha
Setaria viridis = test: Greenhouse post-emergence (POST) herbicidal test on SETVI; details: 480 h, 20 DAT
Summary of the method: as §1

Commelina benghalensis = test: Greenhouse post-emergence (POST) herbicidal test on COMBE; details: 480 h, use rate 4 gai/ha, 20 DAT
Summary of the method: as §1

Polygonum convolvulus = test: Greenhouse pre-emergence (PRE) herbicidal test on POLCO; details: Fallopia convolvulus, pre-emergence, use rate 8 gai/ha
From the text: The culture containers used were plastic pots containing loamy sand with approximately 3.0% of humus as substrate. The seeds of the test plants were sown separately for each species.
For the pre-emergence treatment, the active compounds, suspended or emulsified in water, were applied directly after sowing by means of finely distributing nozzles. The containers were irrigated gently to promote germination and growth and subsequently covered with transparent plastic hoods until the plants had rooted. This cover caused uniform germination of the test plants unless this was adversely affected by the active compounds.
Depending on the species, the plants were kept at 10-25° C. and 20-35° C., respectively.
The test period extended over 2 to 4 weeks. During this time, the plants were tended and their response to the individual treatments was evaluated.
Evaluation was carried out using a scale from 0 to 100. 100 means no emergence of the plants, or complete destruction of at least the above-ground parts, and 0 means no damage or normal course of growth. A good herbicidal activity is given at values of at least 70, and very good herbicidal activity is given at values of at least 85.
If not stated differently, the respective components A and B, and if appropriate, C were formulated as a 5% by weight strength emulsion concentrate and, with addition of the amount of solvent system, introduced into the spray liquor used for applying the active compound.
As indicated application was either post emergent (POST) at the respective growth stage (GS) of the weed (BBCH code), or pre-emergent (PRE).
Assessment was 20 days after treatment (DAT).

Alopecurus myosuroides = test: Greenhouse pre-emergence (PRE) herbicidal test on ALOMY
Summary of the method: (§2)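 Seeds were sown per species in pots of loamy sand with about 3.0% humus, treated pre-emergence, watered and hooded until rooted. Plants grew at 10-25° C or 20-35° C depending on species. Damage was scored 0-100 (100 = no emergence or above-ground parts destroyed) at 20 DAT.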

Abutilon theophrasti = test: Greenhouse pre-emergence (PRE) herbicidal test on ABUTH; details: Abutilon theophrasti, pre-emergence
Summary of the method: as §2

AMAPA [2] = test: Greenhouse post-emergence (POST) herbicidal test on AMAPA; details: post-emergence, 480 h, use rate 2 gai/ha, 20 DAT
Amaranthus retroflexus = test: Greenhouse pre-emergence (PRE) herbicidal test on AMARE; details: Amaranthus retroflexus, pre-emergence
Summary of the method: as §2

Ipomoea hederacea = test: Greenhouse post-emergence (POST) herbicidal test on IPOHE; details: Ipomoea hederacea, post-emergence
Summary of the method: as §1

Digitaria sanguinalis = test: Greenhouse post-emergence (POST) herbicidal test on DIGSA; details: Digitaria sanguinalis, post-emergence, POST
Summary of the method: as §1

**Q.** Which results are given for `COc1c(Br)cc(F)c(F)c1Nc1nc(N)nc(C(C)(C)F)n1` [Compound I-2]?
**A.** pest or weed control at 2 g/ha (Geranium pusillum; 432 h, POST, GERPU, I-2 solo 2 gai/ha, 18 DAT): 40%; pest or weed control at 8 g/ha (Geranium pusillum; 432 h, POST, GERPU, I-2 solo 8 gai/ha, 18 DAT): 50%; inhibition at 2 g/ha (Geranium pusillum; 480 h, GERPU POST, 20 DAT): 20%; pest or weed control at 2 g/ha (Geranium pusillum; 480 h, POST, 2 gai/ha, 20 DAT): 20%; pest or weed control at 8 g/ha (Geranium pusillum; 480 h, POST, 8 gai/ha, 20 DAT): 25%; inhibition at 2 g/ha (Geranium pusillum; POST, GERPU): 30%; inhibition at 4 g/ha (AMAPA [1]; 240 h, use rate 4 gai/ha, 10 DAT): 40%; inhibition at 8 g/ha (AMAPA [1]; 240 h, 10 DAT): 70%; inhibition at 16 g/ha (AMAPA [1]; 240 h, use rate 16 gai/ha, 10 DAT): 75%; inhibition at 2 g/ha (AMAPA [1]; 480 h, use rate 2 gai/ha, 20 DAT): 40%; inhibition at 8 g/ha (AMAPA [1]; 480 h, 20 DAT): 75%; inhibition at 4 g/ha (Setaria viridis; use rate 4 gai/ha): 20%; inhibition at 8 g/ha (Setaria viridis; use rate 8 gai/ha): 25%; inhibition at 4 g/ha (Commelina benghalensis): 0%; inhibition at 8 g/ha (Polygonum convolvulus): 80%; % activity (Alopecurus myosuroides; ALOMY PRE, use rate 8 gai/ha): 85%; pest or weed control at 2 g/ha (Alopecurus myosuroides; Alopecurus myosuroides, pre-emergence, 432 h, PRE, ALOMY, I-2 solo 2 gai/ha, 18 DAT, read-out: % activity): 5%; pest or weed control at 8 g/ha (Alopecurus myosuroides; Alopecurus myosuroides, pre-emergence, 432 h, PRE, ALOMY, I-2 solo 8 gai/ha, 18 DAT): 75%; pest or weed control at 8 g/ha (Alopecurus myosuroides; Alopecurus myosuroides, pre-emergence, 480 h, PRE, 8 gai/ha, 20 DAT): 5%; inhibition at 2 g/ha (Alopecurus myosuroides; Alopecurus myosuroides, pre-emergence, 480 h, PRE, ALOMY, 2 gai/ha, 20 DAT, read-out: % activity solo application): 20%; inhibition at 8 g/ha (Alopecurus myosuroides; Alopecurus myosuroides, pre-emergence, 480 h, PRE, ALOMY, 8 gai/ha, 20 DAT, read-out: % activity solo application): 75%; inhibition at 8 g/ha (Alopecurus myosuroides; Alopecurus myosuroides, pre-emergence, 480 h, PRE, ALOMY, use rate 8 gai/ha, 20 DAT, read-out: solo application % activity): 75%; inhibition at 16 g/ha (Alopecurus myosuroides; Alopecurus myosuroides, pre-emergence, 480 h, PRE, ALOMY, use rate 16 gai/ha, 20 DAT): 95%; inhibition at 2 g/ha (Alopecurus myosuroides; Alopecurus myosuroides, pre-emergence, 480 h, PRE, use rate 2 gai/ha, 20 DAT, read-out: % activity): 40%; inhibition at 8 g/ha (Alopecurus myosuroides; Alopecurus myosuroides, pre-emergence, ALOMY PRE, use rate 8 gai/ha, read-out: % activity): 70%; inhibition at 2 g/ha (Alopecurus myosuroides; Alopecurus myosuroides, pre-emergence, PRE, ALOMY, use rate 2 gai/ha, read-out: % activity): 20%; pest or weed control at 2 g/ha (Abutilon theophrasti; 432 h, PRE, ABUTH, I-2 solo 2 gai/ha, 18 DAT): 30%; pest or weed control at 8 g/ha (Abutilon theophrasti; 432 h, PRE, ABUTH, I-2 solo 8 gai/ha, 18 DAT): 50%; inhibition at 8 g/ha (Abutilon theophrasti; 480 h, ABUTH PRE, 20 DAT, use rate 8 gai/ha, read-out: % activity): 65%; pest or weed control at 2 g/ha (Abutilon theophrasti; 480 h, PRE, 2 gai/ha, 20 DAT): 10%; pest or weed control at 8 g/ha (Abutilon theophrasti; 480 h, PRE, 8 gai/ha, 20 DAT): 65%; inhibition at 2 g/ha (Abutilon theophrasti; 480 h, PRE, ABUTH, 2 gai/ha, 20 DAT, read-out: % activity solo application): 10%; inhibition at 8 g/ha (Abutilon theophrasti; 480 h, PRE, ABUTH, 8 gai/ha, 20 DAT, read-out: % activity solo application): 55%; inhibition at 8 g/ha (Abutilon theophrasti; 480 h, PRE, ABUTH, use rate 8 gai/ha, 20 DAT, read-out: solo application % activity): 55%; inhibition at 2 g/ha (Abutilon theophrasti; ABUTH PRE, use rate 2 gai/ha, read-out: % activity): 20%; inhibition at 2 g/ha (Abutilon theophrasti; PRE, ABUTH, use rate 2 gai/ha, read-out: % activity): 20%; inhibition at 2 g/ha (AMAPA [2]): 30%; pest or weed control at 2 g/ha (Amaranthus retroflexus; 432 h, PRE, AMARE, I-2 solo 2 gai/ha, 18 DAT): 80%; inhibition at 2 g/ha (Amaranthus retroflexus; 480 h, AMARE PRE, 20 DAT, use rate 2 gai/ha, read-out: % activity): 70%; pest or weed control at 2 g/ha (Amaranthus retroflexus; 480 h, PRE, 2 gai/ha, 20 DAT): 70%; inhibition at 2 g/ha (Amaranthus retroflexus; 480 h, PRE, AMARE, 2 gai/ha, 20 DAT, read-out: % activity solo application): 70%; inhibition at 2 g/ha (Amaranthus retroflexus; 480 h, PRE, AMARE, use rate 2 gai/ha, 20 DAT, read-out: solo application % activity): 70%; inhibition at 2 g/ha (Ipomoea hederacea; 480 h, IPOHE POST, 20 DAT, use rate 2 gai/ha, read-out: % activity): 30%; inhibition at 8 g/ha (Ipomoea hederacea; 480 h, IPOHE POST, 20 DAT, use rate 8 gai/ha, read-out: % activity): 80%; pest or weed control at 2 g/ha (Ipomoea hederacea; 480 h, POST, 2 gai/ha, 20 DAT): 30%; pest or weed control at 8 g/ha (Ipomoea hederacea; 480 h, POST, 8 gai/ha, 20 DAT): 80%; inhibition at 2 g/ha (Ipomoea hederacea; 480 h, POST, IPOHE, 2 gai/ha, 20 DAT, read-out: % activity solo application): 30%; inhibition at 2 g/ha (Ipomoea hederacea; 480 h, POST, IPOHE, use rate 2 gai/ha, 20 DAT, read-out: % activity): 10%; inhibition at 4 g/ha (Ipomoea hederacea; 480 h, POST, IPOHE, use rate 4 gai/ha, 20 DAT): 35%; inhibition at 2 g/ha (Ipomoea hederacea; POST, IPOHE, use rate 2 gai/ha, read-out: % activity): 30%; pest or weed control at 2 g/ha (Digitaria sanguinalis; 432 h, DIGSA, I-2 solo 2 gai/ha, 18 DAT): 0%; pest or weed control at 8 g/ha (Digitaria sanguinalis; 480 h, 8 gai/ha, 20 DAT): 65%; inhibition at 2 g/ha (Digitaria sanguinalis; 480 h, DIGSA, 2 gai/ha, 20 DAT, read-out: % activity solo application): 0%; inhibition at 8 g/ha (Digitaria sanguinalis; 480 h, DIGSA, 8 gai/ha, 20 DAT, read-out: % activity solo application): 20%; inhibition at 2 g/ha (Digitaria sanguinalis; 480 h, DIGSA, use rate 2 gai/ha, 20 DAT, read-out: solo application % activity): 0%; inhibition at 8 g/ha (Digitaria sanguinalis; 480 h, DIGSA, use rate 8 gai/ha, 20 DAT, read-out: solo application % activity): 20%
